From patent publication US11180504B2 (ORCHID PHARMA LTD., priority 2016, dated 2021)
In brackets after ≈: the same amount, converted by molar mass.

Legend:
[1] = test system: methicillin-sensitive Staphylococcus aureus; assay: MIC by broth micro-dilution (CLSI), methicillin-sensitive S. aureus; assay type: cell-based; details: Staphylococcus aureus, ATCC 29213 / MSSA, MSSA S. aureus ATCC29213; read-out: MIC
[2] = test system: carbapenem sensitive Escherichia coli; assay: MIC by broth micro-dilution (CLSI), carbapenem sensitive E. coli; assay type: cell-based; details: Escherichia coli, ATCC25922, ESBL −ve E. coli ATCC25922; read-out: MIC
[3] = test system: carbapenemase producing K. pneumoniae; assay: MIC by broth micro-dilution (CLSI), carbapenemase producing K. pneumoniae; assay type: cell-based, Klebsiella pneumoniae; details: Klebsiella pneumoniae, ATCCBAA1705, KPC-2 K. pneumoniae ATCC BAA-1705; read-out: MIC
[4] = test system: carbapenem sensitive Pseudomonas aeruginosa; assay: MIC by broth micro-dilution (CLSI), carbapenem sensitive P. aeruginosa; assay type: cell-based; details: Pseudomonas aeruginosa, ATCC27853, Meropenem susceptible P. aeruginosa ATCC27853; read-out: MIC

SMILES: C[C@@H](NC(=O)Cn1cnnn1)[C@H]1C(=O)N2C(C(=O)O)=C(S[C@@H]3CN[C@H](C(=O)N4CCN(C(=O)CNC(=N)N)CC4)C3)[C@H](C)[C@H]12 [Example 446, (4R,5S,6R)-6-((R)-1-(2-(1H-tetrazol-1-yl)acetamido)ethyl)-3-((3S,5S)-5-(4-(2-guanidinoacetyl)piperazine-1-carbonyl)pyrrolidin-3-ylthio)-4-methyl-7-oxo-1-azabicyclo[3.2.0]hept-2-ene-2-carboxylic acid]
- MIC [1]: 2 µg/mL (≈ 3.16 µM)
- MIC [2]: 0.25 µg/mL (≈ 0.395 µM)
- MIC [3]: 1 µg/mL (≈ 1.58 µM)
- MIC [4]: 4 µg/mL (≈ 6.32 µM)

SMILES: C[C@@H](NC(=O)Cn1cnnn1)[C@H]1C(=O)N2C(C(=O)O)=C(S[C@@H]3CN[C@H](C(=O)N4C[C@H](N)C[C@H]4C(=O)N4CC[C@@H](N)C4)C3)[C@H](C)[C@H]12 [Example 447, (4R,5S,6R)-6-((R)-1-(2-(1H-tetrazol-1-yl)acetamido)ethyl)-3-((3S,5S)-5-((2S,4R)-4-amino-2-((R)-3-aminopyrrolidine-1-carbonyl)pyrrolidine-1-carbonyl)pyrrolidin-3-ylthio)-4-methyl-7-oxo-1-azabicyclo[3.2.0]hept-2-ene-2-carboxylic acid]
- MIC [1]: 16 µg/mL (≈ 24.8 µM)
- MIC [2]: 0.5 µg/mL (≈ 0.774 µM)
- MIC [3]: 4 µg/mL (≈ 6.19 µM)
- MIC [4]: 16 µg/mL (≈ 24.8 µM)

SMILES: C[C@@H](NC(=O)Cn1cnnn1)[C@H]1C(=O)N2C(C(=O)O)=C(S[C@@H]3CN[C@H](C(=O)N4CCC(n5nccn5)CC4)C3)[C@H](C)[C@H]12 [Example 448, (4R,5S,6R)-6-((R)-1-(2-(1H-tetrazol-1-yl)acetamido)ethyl)-3-((3S,5S)-5-(4-(2H-1,2,3-triazol-2-yl)piperidine-1-carbooyl)pyrrolidin-3-ylthio)-4-methyl-7-oxo-1-azabicyclo[3.2.0]hept-2-ene-2-carboxylic acid]
- MIC [1]: 4 µg/mL (≈ 6.67 µM)
- MIC [2]: 0.5 µg/mL (≈ 0.834 µM)
- MIC [3]: 8 µg/mL (≈ 13.3 µM)
- MIC [4]: > 128 µg/mL

SMILES: C[C@@H](NC(=O)Cn1cnnn1)[C@H]1C(=O)N2C(C(=O)O)=C(S[C@H]3CCN(C(=O)CN)C3)[C@H](C)[C@H]12 [Example 449, (4R,5S,6R)-6-((R)-1-(2-(1H-tetrazol-1-yl)acetamido)ethyl)-3-((S)-1-(2-aminoacetyl)pyrrolidin-3-ylthio)-4-methyl-7-oxo-1-azabicyclo[3.2.0]hept-2-ene-2-carboxylic acid]
- MIC [1]: 4 µg/mL (≈ 8.36 µM)
- MIC [2]: 0.5 µg/mL (≈ 1.04 µM)
- MIC [3]: 4 µg/mL (≈ 8.36 µM)
- MIC [4]: 64 µg/mL (≈ 134 µM)

SMILES: C[C@@H](NC(=O)Cn1cnnn1)[C@H]1C(=O)N2C(C(=O)O)=C(S[C@@H]3CN[C@H](C(=O)N4CCN(C[C@H](O)CN)CC4)C3)[C@H](C)[C@H]12 [Example 450, (4R,5S,6R)-6-((R)-1-(2-(1H-tetrazol-1-yl)acetamido)ethyl)-3-((3S,5S)-5-(4-((R)-3-amino-2-hydroxypropyl)piperazine-1-carbonyl)pyrrolidin-3-ylthio)-4-methyl-7-oxo-1-azabicyclo[3.2.0]hept-2-ene-2-carboxylic acid]
- MIC [1]: 8 µg/mL (≈ 13.2 µM)
- MIC [2]: 0.25 µg/mL (≈ 0.412 µM)
- MIC [3]: 1 µg/mL (≈ 1.65 µM)
- MIC [4]: 1 µg/mL (≈ 1.65 µM)

SMILES: C[C@@H](NC(=O)Cn1cnnn1)[C@H]1C(=O)N2C(C(=O)O)=C(S[C@@H]3CN[C@H](C(=O)N4CCN(CCN5CCNCC5)CC4)C3)[C@H](C)[C@H]12 [Example 451, (4R,5S,6R)-6-((R)-1-(2-(1H-tetrazol-1-yl)acetamido)ethyl)-3-methyl-7-oxo-3-((3S,5S)-5-(4-(2-(piperazin-1-yl)ethyl)piperazine-1-carbonyl)pyrrolidin-3-ylthio)-1-azabicyclo[3.2.0]hept-2-ene-2-carboxylic acid]
- MIC [1]: 8 µg/mL (≈ 12.4 µM)
- MIC [2]: 0.25 µg/mL (≈ 0.387 µM)
- MIC [3]: 1 µg/mL (≈ 1.55 µM)
- MIC [4]: 2 µg/mL (≈ 3.1 µM)

SMILES: C[C@@H](NC(=O)Cn1cnnn1)[C@H]1C(=O)N2C(C(=O)O)=C(S[C@@H]3CN[C@H](C(=O)N4C[C@H](N)C[C@H]4C(=O)O)C3)[C@H](C)[C@H]12 [Example 453, (4R,5S,6R)-6-((R)-1-(2-(1H-tetrazol-1-yl)acetamido)ethyl)-3-((3S,5S)-5-((2S,4R)-4-amino-2-carboxypyrrolidine-1-carbonyl)pyrrolidin-3-ylthio)-4-methyl-7-oxo-1-azabicyclo[3.2.0]hept-2-ene-2-carboxylic acid]
- MIC [1]: 16 µg/mL (≈ 27.7 µM)
- MIC [2]: 0.125 µg/mL (≈ 0.216 µM)
- MIC [3]: 2 µg/mL (≈ 3.46 µM)
- MIC [4]: 8 µg/mL (≈ 13.8 µM)

SMILES: C[C@@H](NC(=O)Cn1cnnn1)[C@H]1C(=O)N2C(C(=O)O)=C(S[C@@H]3CN[C@H](C(=O)N4C[C@@H](N)C[C@H]4CNS(N)(=O)=O)C3)[C@H](C)[C@H]12 [Example 454, (4R,5S,6R)-6-((R)-1-(2-(1H-tetrazol-1-yl)acetamido)ethyl)-3-((3S,5S)-5-((2S,4S)-4-amino-2-((sulfamoylamino)-methyl)pyrrolidine-1-carbonyl)pyrrolidin-3-ylthio)-4-methyl-7-oxo-1-azabicyclo[3.2.0]hept-2-ene-2-carboxylic acid]
- MIC [1]: 8 µg/mL (≈ 12.5 µM)
- MIC [2]: 0.5 µg/mL (≈ 0.779 µM)
- MIC [3]: 4 µg/mL (≈ 6.23 µM)
- MIC [4]: 4 µg/mL (≈ 6.23 µM)

SMILES: C[C@@H](NC(=O)Cn1cnnn1)[C@H]1C(=O)N2C(C(=O)O)=C(S[C@@H]3CN[C@H](C(=O)N4C[C@H](N)C[C@H]4CNS(N)(=O)=O)C3)[C@H](C)[C@H]12 [Example 455, (4R,5S,6R)-6-((R)-1-(2-(1H-tetrazol-1-yl)acetamido)ethyl)-3-((3S,5S)-5-((2S,4R)-4-amino-2-((sulfamoylamino)methyl)pyrrolidine-1-carbonyl)pyrrolidin-3-ylthio)-4-methyl-7-oxo-1-azabicyclo[3.2.0]hept-2-ene-2-carboxylic acid]
- MIC [1]: 4 µg/mL (≈ 6.23 µM)
- MIC [2]: 0.5 µg/mL (≈ 0.779 µM)
- MIC [3]: 2 µg/mL (≈ 3.12 µM)
- MIC [4]: 4 µg/mL (≈ 6.23 µM)

SMILES: C[C@@H](NC(=O)Cn1cnnn1)[C@H]1C(=O)N2C(C(=O)O)=C(S[C@@H]3CN[C@H](C(=O)N4CCN(C(=O)[C@@H](N)CN)CC4)C3)[C@H](C)[C@H]12 [Example 456, (4R,5S,6R)-6-((R)-1-(2-(1H-tetrazol-1-yl)acetamido)ethyl)-3-((3S,5S)-5-(4-((S)-2,3-diaminopropanoyl)piperazine-1-carbonyl)pyrrolidin-3-ylthio)-4-methyl-7-oxo-1-azabicyclo[3.2.0]hept-2-ene-2-carboxylic acid]
- MIC [1]: 2 µg/mL (≈ 3.23 µM)
- MIC [2]: 0.5 µg/mL (≈ 0.807 µM)
- MIC [3]: 2 µg/mL (≈ 3.23 µM)
- MIC [4]: 2 µg/mL (≈ 3.23 µM)

SMILES: C[C@@H](NC(=O)Cn1cnnn1)[C@H]1C(=O)N2C(C(=O)O)=C(S[C@@H]3CN[C@H](C(=O)N4CCN(C[C@H](N)CN)CC4)C3)[C@H](C)[C@H]12 [Example 457, (4R,5S,6R)-6-((R)-1-(2-(1H-tetrazol-1-yl)acetamido)ethyl)-3-((3S,5S)-5-(4-((R)-2,3-diaminopropyl)piperazine-1-carbonyl)pyrrolidin-3-ylthio)-4-methyl-7-oxo-1-azabicyclo[3.2.0]hept-2-ene-2-carboxylic acid]
- MIC [1]: 2 µg/mL (≈ 3.3 µM)
- MIC [2]: 0.25 µg/mL (≈ 0.413 µM)
- MIC [3]: 1 µg/mL (≈ 1.65 µM)
- MIC [4]: 1 µg/mL (≈ 1.65 µM)

SMILES: C[C@@H](NC(=O)CN1CCCC1)[C@H]1C(=O)N2C(C(=O)O)=C(S[C@@H]3CN[C@H](C(=O)N(C)C)C3)[C@H](C)[C@H]12 [Example 458, (4R,5S,6R)-3-((3S,5S)-5-(dimethylcarbamoyl)pyrrolidin-3-ylthio)-4-methyl-7-oxo-6-((R)-1-(2-(pyrrolidin-1-yl)acetamido)ethyl)-1-azabicyclo[3.2.0)hept-2-eoe-2-carboxylic acid]
- MIC [1]: 16 µg/mL (≈ 32.4 µM)
- MIC [2]: 0.5 µg/mL (≈ 1.01 µM)
- MIC [3]: 1 µg/mL (≈ 2.03 µM)
- MIC [4]: 16 µg/mL (≈ 32.4 µM)

SMILES: C[C@@H](NC(=O)Cn1cnnn1)[C@H]1C(=O)N2C(C(=O)O)=C(S[C@@H]3CN[C@H](C(=O)N4CCO[C@H](CN)C4)C3)[C@H](C)[C@H]12 [Example 460, (4R,5S,5R)-6-((R)-1-(2-(1H-tetrazol-1-yl)acetamido)ethyl)-3-((3S,5S)-5-((R)-2-(aminomethyl)morpholine-4-carbonyl)pyrrolidin-3-ylthio)-4-methyl-7-oxo-1-azabicyclo[3.2.0]hept-2-ene-2-carboxylic acid]
- MIC [1]: 4 µg/mL (≈ 7.1 µM)
- MIC [2]: 0.5 µg/mL (≈ 0.887 µM)
- MIC [3]: 2 µg/mL (≈ 3.55 µM)
- MIC [4]: 4 µg/mL (≈ 7.1 µM)

SMILES: C[C@@H](NC(=O)Cn1cnnn1)[C@H]1C(=O)N2C(C(=O)O)=C(S[C@@H]3CN[C@H](C(=O)N4CCC(CN)(CO)CC4)C3)[C@H](C)[C@H]12 [Example 463, (4R,5S,6R)-6-((R)-1-(2-(1H-tetrazol-1-yl)acetamido)ethyl)-3-((3S,5S)-5-(4-(aminomethyl)-4-(hydroxymethyl)piperidine-1-carbonyl)pyrrolidin-3-ylthio)-4-methyl-7-oxo-1-azabicyclo[3.2.0]hept-2-ene-2-carboxylic acid]
- MIC [1]: 4 µg/mL (≈ 6.76 µM)
- MIC [2]: 0.5 µg/mL (≈ 0.845 µM)
- MIC [3]: 1 µg/mL (≈ 1.69 µM)
- MIC [4]: 2 µg/mL (≈ 3.38 µM)

SMILES: C[C@@H](NC(=O)Cn1cnnn1)[C@H]1C(=O)N2C(C(=O)O)=C(S[C@@H]3CN[C@H](C(=O)N4CCC[C@H]4CN)C3)[C@H](C)[C@H]12 [Example 464, (4R,5S,6R)-6-((R)-1-(2-(1-tetrazol-1-yl)acetamido)ethyl)-3-((3S,5S)-5-((S)-2-(aminomethyl)pyrrolidine-1-carbooyl)pyrrolidin-3-ylthio)-4-methyl-7-oxo-1-azabicyclo[3.2.0]hept-2-ene-2-carboxylic acid]
- MIC [1]: 4 µg/mL (≈ 7.3 µM)
- MIC [2]: 1 µg/mL (≈ 1.83 µM)
- MIC [3]: 4 µg/mL (≈ 7.3 µM)
- MIC [4]: 16 µg/mL (≈ 29.2 µM)

SMILES: C[C@@H](NC(=O)Cn1cnnn1)[C@H]1C(=O)N2C(C(=O)O)=C(S[C@@H]3CN[C@H](C(=O)N4CCC[C@@H]4CN)C3)[C@H](C)[C@H]12 [Example 465, (4R,5S,6R)-6-((R)-1-(2-(1H-tetrazol-1-yl)acetamido)ethyl)-3-((3S,5S)-5-((R)-2-(aminomethyl)pyrrolidine-1-carbonyl)pyrrolidin-3-ylthio)-4-methyl-7-oxo-1-azabicyclo[3.2.0]hept-2-ene-2-carboxylic acid]
- MIC [1]: 4 µg/mL (≈ 7.3 µM)
- MIC [2]: 0.5 µg/mL (≈ 0.913 µM)
- MIC [3]: 2 µg/mL (≈ 3.65 µM)
- MIC [4]: 16 µg/mL (≈ 29.2 µM)
